According to US20100285959A1, “HERBICIDAL MIXTURES” (priority 2006, published 2010):

Columns and labels:
redroot pigweed (AMARE) [1] = test: Test 21 growth chamber, postemergence; format: in vivo, Amaranthus retroflexus; details: 19 DAA
Experimental: A test was conducted to evaluate the effects on winter barley (HORVW, Hordeum vulgare L.), winter wheat (TRZAW, Triticum aestivum L.), and several weed species, of mixtures of Compound 2 with the commercial herbicide (2,4-dichlorophenoxy)acetic acid (2,4-D), an auxin mimic. […] Plants were treated postemergence at the 2-4 leaf growth stage, and each treatment was replicated one time. […] Plants were watered as needed. […] Results are from single replicates.

corn (ZEAMD) = test: Test 14 field trial, preemergence, growth as percent of control; format: in vivo, Zea mays ssp. indentata; details: 1870 g a.i./ha
Source text: Corn seeds (hybrid ‘Pioneer 31G96 RR’) were planted in mid spring season, 3.8 cm deep in a clay loam soil having 2% organic matter and a pH of 6.6. Plots were 6.1 m long by 3.0 m wide with rows spaced 76 cm apart. Seeds were spaced 15 cm apart within the rows. The field was managed using conventional tillage practices. […] Yellow nutsedge was only evaluated 19 and 28 days after application, and ivyleaf morningglory could only be evaluated 28 days after application. […] Results are the means of the three replicates. This growth inhibition data was converted to results in the form of “plant growth as a percent of control plant growth” using the calculation “100 minus growth inhibition”. […] For “growth as a percent of control” data, Colby's Equation calculates the expected additive effect of herbicidal mixtures having two active ingredients as follows:
Ga+b=GaGb/100 • wherein Ga+b is the growth as a percent of control of plants treated with the mixture expected from additive contribution of the individual components, • Ga is the observed growth as a percent of control of plants treated with the first active ingredient at the same use rate as in the mixture, and • Gb is the observed growth as a percent of control of plants treated with the second active ingredient at the same use rate as in the mixture. For mixtures having three active ingredients, Colby's Equation to calculate the expected additive effect of herbicidal mixtures is as follows:
Ga+b+c=GaGbGc/10,000 • wherein Ga and Gb are as defined above and • Ga+b+c is the growth as a percent of control of plants treated with the mixture expected from additive contribution of the individual components, and • Gc is the observed growth as a percent of control of plants treated with the third active ingredient at the same use rate as in the mixture. When these two forms of Colby's Equation are used, if the observed effects on weeds are less than the expected values, the mixture is synergistic.

[2] = test system: common lambsquarters (CHEAL); test: Test 26 field trial, postemergence; format: in vivo, Chenopodium album; parameters: scale not given here
Source text: Corn seeds (hybrid ‘Pioneer 31G96’) were planted in mid spring season, 3.8 cm deep in a silt loam soil having 2% organic matter and a pH of 6.6. Plots were 6.1 m long by 3.0 m wide with rows spaced 76 cm apart. Seeds were spaced 15 cm apart within the rows. The field was managed using conventional tillage practices. […] All treatments also included a surfactant. […] Some of the weed species could not be evaluated at every timing. […] Results are the means of the three replicates.

mixed hardwoods (MXDSP) = test: Test 13 field trial, postemergence, brush weeds; format: in vivo, Nyssa sylvatica, Acer rubrum, Liquidambar styraciflua; details: 56 DAA; g a.i./ha: Cpd 2 250; Fosamine-ammonium 6700
Source text: Plots were established in non-crop land and were 6.1 m long by 3.0 m wide. […] Treatments were applied postemergence to the brush weeds using a backpack sprayer delivering a spray volume of 468 L/ha using a pressure of 241 kPa. […] All treatments also included a surfactant. […] Results are the means of the three replicates.

field poppy (PAPRH) = test: Test 24 growth chamber, postemergence; format: in vivo, Papaver rhoeas; details: 17 DAA
Experimental: (§1) Plants were treated postemergence at the 2-4 leaf growth stage, and each treatment was replicated three times. […] Plants were watered as needed. […] Results for barley and wheat are the means across varieties of the three replicates, and results for the weeds are the means of the three replicates.

field pennycress (THLAR) = test: Test 4 field trial, postemergence; format: in vivo, Thlaspi arvense; parameters: scale not given here
Experimental: A field trial was conducted to evaluate the effects of mixtures of Compound 2 with commercial herbicides on spring wheat (TRZAS, Triticum aestivum L.) and several weed species. Wheat seeds (cv. ‘AC Intrepid’) were planted in late spring season, 3.8 cm deep in a loam soil having 2.7% organic matter and a pH of 7. Plots were 6 m long by 2.5 m wide. The field was managed using no-till practices. The plots were arranged in a randomized complete block design with each treatment being replicated four times. Treatments were applied postemergence 25 days after planting using a backpack sprayer delivering a spray volume of 55 L/ha using a pressure of 276 kPa. […] Compound 2 and clodinafop treatments, alone and in combination, also included a surfactant. Weed species present in the experimental plots in sufficient quantity to be evaluated included wild oat (AVEFA, Avena fatua L.), common lambsquarters (CHEAL, Chenopodium album L.), kochia (KCHSC, Kochia scoparia (L.) Schrad.), wild buckwheat (POLCO, Polygonum convolvulus L.), Russian thistle (SASKR, Salsola kali L. ssp. ruthenica (Iljin) Soo), and field pennycress (THLAR, Thlaspi arvense L.). […] Common lambsquarters was evaluated only at 14 days after application. […] Results are the means of the four replicates.

redroot pigweed (AMARE) [3] = test: Test 24 growth chamber, postemergence; format: in vivo, Amaranthus retroflexus; details: 17 DAA
Experimental: as §1

## O=C(O)COc1ccc(Cl)cc1Cl [2,4-D, (2,4-dichlorophenoxy)acetic acid]
Redroot pigweed (AMARE) [1]; 2,4-D alone 125 g a.i./ha
  Postemergence AMARE Obs: 50
Redroot pigweed (AMARE) [1]; 2,4-D alone 250 g a.i./ha
  Postemergence AMARE Obs: 50

## CCc1cccc(C)c1N(C(=O)CCl)[C@@H](C)COC [S-Metolachlor, S-metolachlor, reference compound]
Corn (ZEAMD); 19 DAA
  Obs growth % of control: 98%
Corn (ZEAMD); 28 DAA
  Obs growth % of control: 98%
Corn (ZEAMD); 56 DAA
  Obs growth % of control: 100%

## COC(=O)c1nc(C2CC2)nc(N)c1Cl [Compound 2, methyl 6-amino-5-chloro-2-cyclopropyl-4-pyrimidinecarboxylate]
[2]; 14 DAA, 30 g a.i./ha
  CHEAL Obs: 88
[2]; 14 DAA, 45 g a.i./ha
  CHEAL Obs: 63
[2]; 14 DAA, 60 g a.i./ha
  CHEAL Obs: 100
[2]; 28 DAA, 30 g a.i./ha
  CHEAL Obs: 100
[2]; 28 DAA, 45 g a.i./ha
  CHEAL Obs: 100
[2]; 28 DAA, 60 g a.i./ha
  CHEAL Obs: 100
[2]; 56 DAA, 30 g a.i./ha
  CHEAL Obs: 100
[2]; 56 DAA, 45 g a.i./ha
  CHEAL Obs: 100
[2]; 56 DAA, 60 g a.i./ha
  CHEAL Obs: 100
Redroot pigweed (AMARE) [1]; Cpd 2 alone 16 g a.i./ha
  Postemergence AMARE Obs: 60
Mixed hardwoods (MXDSP)
  MXDSP Obs: 45
Field poppy (PAPRH); Cpd 2 4 g a.i./ha
  PAPRH Obs (scale 0 to 100): 62
Field poppy (PAPRH); Cpd 2 8 g a.i./ha
  PAPRH Obs (scale 0 to 100): 72
Field poppy (PAPRH); Cpd 2 16 g a.i./ha
  PAPRH Obs (scale 0 to 100): 75
Field pennycress (THLAR); 14 DAA, Cpd 2 30 g a.i./ha alone or with fenoxaprop 90
  THLAR Obs: 0
Field pennycress (THLAR); 14 DAA, Cpd 2 60 g a.i./ha alone or with clodinafop 56 or fenoxaprop 90
  THLAR Obs: 0
Field pennycress (THLAR); 35 DAA, Cpd 2 30 g a.i./ha alone or with clodinafop 56 or fenoxaprop 90
  THLAR Obs: 0
Field pennycress (THLAR); 35 DAA, Cpd 2 60 g a.i./ha alone or with fenoxaprop 90
  THLAR Obs: 8
Redroot pigweed (AMARE) [3]; Cpd 2 4 g a.i./ha
  AMARE Obs (scale 0 to 100): 63
Redroot pigweed (AMARE) [3]; Cpd 2 8 g a.i./ha
  AMARE Obs (scale 0 to 100): 67
Redroot pigweed (AMARE) [3]; Cpd 2 16 g a.i./ha
  AMARE Obs (scale 0 to 100): 75
